Experimental data from PubChem BioAssay AID2060599 (Molecular Pharmacology Branch, DTP, NCI, 2025).

System: 817829-284-R-J1-PDC complex spheroids, viability
Assay: Anticancer human tumor 817829-284-R-J1-PDC patient-derived colon adenocarcinoma cell line growth inhibition [CLK]
Conditions: for viability, T/C: stronger effect = lower value
Outline: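 Patient-derived tumor cells grown as complex spheroids with HUVEC endothelial cells and mesenchymal stem cells, treated with drug combinations. Concentrations descend in half-log steps from near clinical Cmax, or from 10 microM if Cmax unknown.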

[1] = curve of first compound, second compound 0.0316 µM
[2] = curve of first compound, second compound 0.1 µM
[3] = curve of first compound, second compound 0.316 µM
[4] = curve of first compound, second compound 1 µM
[5] = curve of first compound, second compound 3.16 µM
[6] = curve of first compound, second compound 10 µM
[7] = second compound 0.0316 µM, first compound 0.0316 µM
[8] = second compound 0.0316 µM, first compound 0.1 µM
[9] = second compound 0.0316 µM, first compound 0.316 µM
[10] = second compound 0.0316 µM, first compound 1 µM
[11] = second compound 0.0316 µM, first compound 3.16 µM
[12] = second compound 0.0316 µM, first compound 10 µM
[13] = second compound 0.1 µM, first compound 0.0316 µM
[14] = second compound 0.1 µM, first compound 0.1 µM
[15] = second compound 0.1 µM, first compound 0.316 µM
[16] = second compound 0.1 µM, first compound 1 µM
[17] = second compound 0.1 µM, first compound 3.16 µM
[18] = second compound 0.1 µM, first compound 10 µM
[19] = second compound 0.316 µM, first compound 0.0316 µM
[20] = second compound 0.316 µM, first compound 0.1 µM
[21] = second compound 0.316 µM, first compound 0.316 µM
[22] = second compound 0.316 µM, first compound 1 µM
[23] = second compound 0.316 µM, first compound 3.16 µM
[24] = second compound 0.316 µM, first compound 10 µM
[25] = second compound 1 µM, first compound 0.0316 µM
[26] = second compound 1 µM, first compound 0.1 µM
[27] = second compound 1 µM, first compound 0.316 µM
[28] = second compound 1 µM, first compound 1 µM
[29] = second compound 1 µM, first compound 3.16 µM
[30] = second compound 1 µM, first compound 10 µM
[31] = second compound 3.16 µM, first compound 0.0316 µM
[32] = second compound 3.16 µM, first compound 0.1 µM
[33] = second compound 3.16 µM, first compound 0.316 µM
[34] = second compound 3.16 µM, first compound 1 µM
[35] = second compound 3.16 µM, first compound 3.16 µM
[36] = second compound 3.16 µM, first compound 10 µM
[37] = second compound 10 µM, first compound 0.0316 µM
[38] = second compound 10 µM, first compound 0.1 µM
[39] = second compound 10 µM, first compound 0.316 µM
[40] = second compound 10 µM, first compound 1 µM
[41] = second compound 10 µM, first compound 3.16 µM
[42] = second compound 10 µM, first compound 10 µM
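Further: spheroids exposed to the agents for seven days before readout.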

C=C(F)C(=O)N1CCN(c2nc(OCC3CCCN3C)nc3c2CCN(c2cccc4cccc(Cl)c24)C3)CC1CC#N (stereo not given) + CNC(=O)c1ccc(Nc2nc(OC3CCCC3)c3c(-c4ccc5nc(C)oc5c4)c[nH]c3n2)c(OC)c1
IC50 [1]: < 31.6 nM | IC50 [2]: < 31.6 nM | IC50 [3]: < 31.6 nM | IC50 [4]: < 31.6 nM | IC50 [5]: < 31.6 nM | IC50 [6]: < 31.6 nM | viability, T/C [7]: 19.9% | viability, T/C [8]: 42.3% | viability, T/C [9]: 23.4% | viability, T/C [10]: 23.3% | viability, T/C [11]: 17.6% | viability, T/C [12]: 0.08% | viability, T/C [13]: 34.9% | viability, T/C [14]: 23% | viability, T/C [15]: 26.5% | viability, T/C [16]: 23.6% | viability, T/C [17]: 16.1% | viability, T/C [18]: 0.15% | viability, T/C [19]: 25.3% | viability, T/C [20]: 25.3% | viability, T/C [21]: 22.7% | viability, T/C [22]: 24.5% | viability, T/C [23]: 10.8% | viability, T/C [24]: 0.08% | viability, T/C [25]: 22.4% | viability, T/C [26]: 24.6% | viability, T/C [27]: 28% | viability, T/C [28]: 24.4% | viability, T/C [29]: 5.74% | viability, T/C [30]: 0.07% | viability, T/C [31]: 20.7% | viability, T/C [32]: 26.8% | viability, T/C [33]: 22.5% | viability, T/C [34]: 21% | viability, T/C [35]: 3.26% | viability, T/C [36]: 0.18% | viability, T/C [37]: 21.7% | viability, T/C [38]: 14.1% | viability, T/C [39]: 20.6% | viability, T/C [40]: 28.5% | viability, T/C [41]: 3.94% | viability, T/C [42]: 0.22%

CC(=O)O[C@H]1C(=O)[C@@]2(C)[C@H]([C@H](OC(=O)c3ccccc3)[C@]3(O)C[C@H](OC(=O)[C@H](O)[C@@H](NC(=O)c4ccccc4)c4ccccc4)C(C)=C1C3(C)C)[C@]1(OC(C)=O)CO[C@@H]1C[C@@H]2O + CN1CCN(c2cc(C(=O)Nc3cc4cc(-c5cnn(C)c5)ccc4cn3)ccn2)CC1
IC50 [1]: < 31.6 nM | IC50 [2]: < 31.6 nM | IC50 [3]: < 31.6 nM | IC50 [4]: < 31.6 nM | IC50 [5]: < 31.6 nM | IC50 [6]: < 31.6 nM | viability, T/C [7]: 5.38% | viability, T/C [8]: 5.12% | viability, T/C [9]: 4.55% | viability, T/C [10]: 4.77% | viability, T/C [11]: 5.22% | viability, T/C [12]: 5.27% | viability, T/C [13]: 5.23% | viability, T/C [14]: 4.54% | viability, T/C [15]: 4.59% | viability, T/C [16]: 4.02% | viability, T/C [17]: 4.74% | viability, T/C [18]: 5.63% | viability, T/C [19]: 2.41% | viability, T/C [20]: 2.26% | viability, T/C [21]: 2.43% | viability, T/C [22]: 2.04% | viability, T/C [23]: 2.2% | viability, T/C [24]: 2.45% | viability, T/C [25]: 0.09% | viability, T/C [26]: 0.1% | viability, T/C [27]: 0.09% | viability, T/C [28]: 0.07% | viability, T/C [29]: 0.09% | viability, T/C [30]: 0.11% | viability, T/C [31]: 0.11% | viability, T/C [32]: 0.14% | viability, T/C [33]: 0.13% | viability, T/C [34]: 0.16% | viability, T/C [35]: 0.1% | viability, T/C [36]: 0.14% | viability, T/C [37]: 0.07% | viability, T/C [38]: 0.1% | viability, T/C [39]: 0.11% | viability, T/C [40]: 0.09% | viability, T/C [41]: 0.11% | viability, T/C [42]: 0.12%

NC(=O)C(=Cn1cnc(-c2cc(C(F)(F)F)cc(C(F)(F)F)c2)n1)c1cncnc1
viability, T/C (compound 0.00949 µM): 69% | viability, T/C (compound 0.03 µM): 23.2% | viability, T/C (compound 0.0949 µM): 17.2% | viability, T/C (compound 0.3 µM): 8.78% | viability, T/C (compound 0.949 µM): 3.63% | viability, T/C (compound 3 µM): 2.66% | IC50 (curve of compound): 15.7 nM

Nc1ccn(C2OC(CO)C(O)C2(F)F)c(=O)n1 (stereo not given) + CN1CCN(c2cc(C(=O)Nc3cc4cc(-c5cnn(C)c5)ccc4cn3)ccn2)CC1
IC50 [1]: < 31.6 nM | IC50 [2]: < 31.6 nM | IC50 [3]: < 31.6 nM | IC50 [4]: < 31.6 nM | IC50 [5]: < 31.6 nM | IC50 [6]: < 31.6 nM | viability, T/C [7]: 4.65% | viability, T/C [8]: 4.62% | viability, T/C [9]: 3.63% | viability, T/C [10]: 3.9% | viability, T/C [11]: 3.03% | viability, T/C [12]: 1.88% | viability, T/C [13]: 3.65% | viability, T/C [14]: 3.83% | viability, T/C [15]: 3.7% | viability, T/C [16]: 3.47% | viability, T/C [17]: 3.1% | viability, T/C [18]: 1.72% | viability, T/C [19]: 1.66% | viability, T/C [20]: 1.94% | viability, T/C [21]: 1.74% | viability, T/C [22]: 1.53% | viability, T/C [23]: 1.54% | viability, T/C [24]: 0.9% | viability, T/C [25]: 0.14% | viability, T/C [26]: 0.08% | viability, T/C [27]: 0.09% | viability, T/C [28]: 0.07% | viability, T/C [29]: 0.14% | viability, T/C [30]: 0.07% | viability, T/C [31]: 0.11% | viability, T/C [32]: 0.14% | viability, T/C [33]: 0.17% | viability, T/C [34]: 0.09% | viability, T/C [35]: 0.11% | viability, T/C [36]: 0.09% | viability, T/C [37]: 0.05% | viability, T/C [38]: 0.09% | viability, T/C [39]: 0.09% | viability, T/C [40]: 0.09% | viability, T/C [41]: 0.11% | viability, T/C [42]: 0.11%

Nc1ccn(C2OC(CO)C(O)C2(F)F)c(=O)n1 (stereo not given) + CNC(=O)c1ccc(Nc2nc(OC3CCCC3)c3c(-c4ccc5nc(C)oc5c4)c[nH]c3n2)c(OC)c1
IC50 [1]: < 31.6 nM | IC50 [2]: < 31.6 nM | IC50 [3]: < 31.6 nM | IC50 [4]: < 31.6 nM | IC50 [5]: < 31.6 nM | IC50 [6]: < 31.6 nM | viability, T/C [7]: 7.4% | viability, T/C [8]: 6.76% | viability, T/C [9]: 7.11% | viability, T/C [10]: 7.29% | viability, T/C [11]: 5.09% | viability, T/C [12]: 3.92% | viability, T/C [13]: 8.05% | viability, T/C [14]: 6.31% | viability, T/C [15]: 5.97% | viability, T/C [16]: 5.9% | viability, T/C [17]: 5.26% | viability, T/C [18]: 3.21% | viability, T/C [19]: 8.92% | viability, T/C [20]: 6.1% | viability, T/C [21]: 7.05% | viability, T/C [22]: 4.87% | viability, T/C [23]: 4.82% | viability, T/C [24]: 2.7% | viability, T/C [25]: 6.66% | viability, T/C [26]: 4.92% | viability, T/C [27]: 5.51% | viability, T/C [28]: 5.11% | viability, T/C [29]: 3.64% | viability, T/C [30]: 2.55% | viability, T/C [31]: 6.07% | viability, T/C [32]: 5.26% | viability, T/C [33]: 4.97% | viability, T/C [34]: 4.56% | viability, T/C [35]: 3.52% | viability, T/C [36]: 3.21% | viability, T/C [37]: 7.94% | viability, T/C [38]: 5.03% | viability, T/C [39]: 4.94% | viability, T/C [40]: 4.81% | viability, T/C [41]: 4.26% | viability, T/C [42]: 2.75%
